Test results published in patent US20250282798A1, “HETEROARYL-SUBSTITUTED BICYCLIC COMPOUND AND USE THEREOF” (Medshine Discovery Inc., priority 2022, published 2025).

Experiments:
Assay type in all cases: in vitro ADME
MDR1-MDCK II cell line = assay: Permeability evaluation in MDR1-MDCK II cells
Experimental: (§1) Cell line: The MDR1-MDCK II cell line authorized by Piet Borst's laboratory at the Netherlands Cancer Research Institute was used in this assay as an in vitro model for the permeability evaluation assay. The cells were inoculated in a Transwell-96 well cell plate at a density of 2.3×10^5 cells/cm^2, and cultured in a carbon dioxide incubator for 4-7 days before use in the transport assay.
(§2) The administration concentration of the test sample was 2.00 μM.
(§3) Test direction and number of parallel samples: bidirectional A-B and B-A, 2 parallels
(§4) Transport buffer (TB): HBSS solution containing 10 mM HEPES (pH 7.40±0.05)
(§5) Incubation conditions: 37±1° C., 5% CO2, incubated for 150 minutes
(§6) Control compounds: Nadolol and metoprolol were used as low-permeability and high-permeability control compounds. Digoxin was used as a substrate of P-glycoprotein. The administration concentration of nadolol and metoprolol was 2.00 μM, and the administration concentration of digoxin was 10.0 μM.
(§7) After the transport assay, the integrity of the MDR1-MDCK II cell layer was assayed by the Lucifer Yellow Rejection Assay. The remaining solution in the apical and basolateral wells was removed. 75 μL of TB containing 100 μM Lucifer Yellow was added to the apical well, and 250 μL of TB was added to the basolateral well. The cell plate was incubated in a cell culture incubator at 37±1° C., 5% CO2 and saturated humidity for 30 minutes. Then, 20 μL of sample was taken from the apical well and mixed with 60 μL of TB, and 80 μL of sample was taken from the basolateral well. The relative fluorescence unit (RFU) was measured at 425/528 nm (excitation/emission) using a microplate reader.
(§8) In this assay, the sample analysis of the test samples and control compounds of nadolol, metoprolol, and digoxin was performed by liquid chromatography-tandem mass spectrometry (LC-MS/MS). The retention time of the analytes and internal standards, chromatogram acquisition, and chromatogram integration were processed using the software Analyst (Sciex, Framingham, MA, USA). The sample analysis was semi-quantitatively determined using the peak area of analyte and the peak area of internal standard.
(§9) VR is the volume of the receiver end solution (0.075 mL for side A, and 0.25 mL for side B); Area is the relative surface area of the cell monolayer (0.0804 cm2); Time is the incubation time (9000 s); C0 is the peak area ratio of the compound at the administration end; VD is the volume of the administration end (0.075 mL for side A, and 0.25 mL for side B); CD and CR are the peak area ratios of the compound at the administration end and the receiver end, respectively.

[1] = Permeability evaluation in MDR1-MDCK II cells; settings: dog
Experimental: as §1, §2, §3, §4, §5, §6, §7, §8, §9

MDR1 (P-glycoprotein) = assay: Permeability evaluation in MDR1-MDCK II cells; settings: dog, pH 7.4, 2.00 μM, 150 minutes
Experimental: as §1, §2, §3, §4, §5, §6, §7, §8, §9

| SMILES | Efflux ratio (MDR1-MDCK II cell line; 2.00 μM, 150 minutes) | Permeability Papp A to B (MDR1-MDCK II cell line; 2.00 μM, 150 minutes) | Permeability Papp B to A (MDR1-MDCK II cell line; 2.00 μM, 150 minutes) | Conclusion of the permeability (MDR1-MDCK II cell line; class by Papp) | Papp A→B at 150 min, 2 μM ([1]; pH 7.4, 2.00 μM, 150 minutes) [×10⁻⁶ cm/s] | Papp B→A at 150 min, 2 μM ([1]; pH 7.4, 2.00 μM, 150 minutes) [×10⁻⁶ cm/s] | Papp at 150 min, 2 μM ([1]; pH 7.4, class by Papp, read-out: Conclusion of the permeability) [×10⁻⁶ cm/s] | efflux ratio at 150 min, 2 μM (MDR1 (P-glycoprotein)) |
| --- | --- | --- | --- | --- | --- | --- | --- | --- |
| Cn1ccc2c(-c3ncc(Nc4ccc5c(n4)OC[C@@H]4COCCN54)c4c3CNC4=O)ccnc21 [Compound 4] | 4.97 | 5.20 10^−6 cm/s | 25.84 10^−6 cm/s | Medium (Medium permeability 1.0 < Papp < 5.5 (×10^−6 cm/s)) |  |  |  |  |
| O=C1NCc2c(-c3cnc4cc(F)ccn34)ccc(Nc3ccc4c(n3)OC[C@@H]3COCCN43)c21 [Compound 8] |  |  |  |  | 1.97 | 14.2 | 1 to 5.5 | 7.19 |
